Test results published in paper PMC7214178, “Ligand‐specific recycling profiles determine distinct potential for chronic analgesic tolerance of delta‐opioid receptor (DOPr) agonists” (Journal of Cellular and Molecular Medicine, 2020).

Columns and labels:
[1] = test system: rat model of streptozotocin (STZ)‐induced diabetic neuropathy; assay: Chronic (homologous) analgesic tolerance over six daily i.t. injections at ED80, with or without ECE2 inhibitor 6634449; assay type: in vivo; details: for Anti‐allodynic response over 6‐day treatment: six consecutive i.t. injections at ED80, 24‐hour intervals, daily AUC, seven rats/group
Protocol: Type I diabetes was induced by systemic injection of streptozotocin (STZ, 65 mg/kg, i.p.) according to a standardized methodology, which allows development of persistent diabetic neuropathy after the first week of treatment. ^20 At the end of the first week, blood was extracted from the tail vein and blood glucose levels were measured with a glucometer (Accu‐Chek Aviva; Roche Diagnostics) prior to evaluation of analgesia on the second week.
Mechanical allodynia is the consequence of maladaptive neuroplasticity following nerve damage. ^24 In a model of diabetic neuropathy as the one used in this study, hyperglycaemia contributes to generate reactive oxygen species which induce microglia activation and inflammatory mediators. ^25 , ^26 These mediators attenuate the activity of Gly/GABA interneurons in superficial layers ^24 , ^27 , ^28 , ^29 and disrupt the inhibitory control that prevents innocuous touch stimuli from producing pain which leads to allodynia. ^30 DOPrs are expressed in these light‐touch mechanoreceptors ^31 and up‐regulated during sensitization, ^32 , ^33 making DOPr agonists elective for relieving this type of pain. Allodynia was evaluated using Von Frey filaments as previously described. ^19 Briefly, rats were accustomed for 15 min on a metal mesh floor under an inverted plastic box (20 × 10 × 10 cm) in a quiet room dedicated to this behavioural test. After habituation, the plantar surface of the right and left hind legs was alternately touched (6‐8 seconds) with von Frey filaments of progressively wider diameter in order to find the threshold of pressure required to produce withdrawal. The mechanical threshold response was obtained by consigning the pressure in grams that would result in withdrawal of the paw in 50% of 10 trials. A normal rat responds to tactile pressures of 12‐15 g whereas neuropathic rats respond to pressures of 4‐6 g. ^24
To evaluate homologous tolerance, each agonist was injected i.t. once daily for six consecutive days, at ED80 derived from dose‐response curves (deltorphin‐IIED80: 0.30 nmol/30 μL; TIPPED80: 0.40 nmol/30 μL; SB235863ED80: 1.7 nmol/30 μL and SNC‐80ED80: 0.55 nmol/30 μL). Immediately after drug administration, mechanical allodynia was measured every 15 minutes until the analgesic response disappeared. […] Prior to starting any pharmacological treatment, the presence of allodynia was confirmed. Treatments and measures were carried out randomly by two different experimenters to ensure blinding to treatment for the person assessing allodynia. In a series of experiments, an inhibitor of endothelin‐converting enzyme 2 (ECE2), 6634449, was administered by i.t injection (3 nmol/30 μL) 20 minutes prior to administration of DOPr ligands from 2 to 7 days. The vehicle (4% DMSO diluted in CSF sterile) was given as control. The dose of 6634449 used in this study was based on results previously published. ^25
Figure 1 Experimental design. One week after STZ administration, repeated treatments with DOPr agonists were started. Before starting chronic treatment with ED80 of deltorphin II, TIPP, SB235863 or SNC‐80, animals were tested to establish the baseline allodynia. Immediately after, they were injected with deltorphin II at a dose corresponding to ED50, which was repeated at the end of treatment. Allodynia measures were taken every 15 min after each injection until analgesic effects disappeared. Chronic tolerance was evaluated by comparing analgesic response to successive i.t. injections of each agonist between days 2 and 6. Difference in analgesic response to deltorphin II ED50 in days 1 and 8 allowed to establish tolerance induced by the different agonists to this common probe

[2] = test system: Flag‐DOPr; assay: DOPr recycling after recovery from agonist‐induced internalization in primary cortical neuron cultures; assay type: cell-based, Murine; details: for Surface labelling after recovery / Intracellular immunoreactivity after 60 min recovery vs immediately after treatment: 10 µmol/L; for Surface labelling after recovery / Effect of ECE2 inhibitor 6634449 on redistribution of internalized receptors during recovery: 60 min; for Surface labelling after recovery: then 60 min recovery, non‐permeabilized neurons; for Intracellular immunoreactivity after 60 min recovery vs immediately after treatment: then 60 min recovery in absence of ligand, permeabilized neurons; for Effect of ECE2 inhibitor 6634449 on redistribution of internalized receptors during recovery: agonist 10 µmol/L, 6634449 20 μmol/L during 60 min recovery
Protocol: Primary neuronal cultures were prepared from rat post‐natal prefrontal cortex (P0‐P2) as previously described. ^19 Briefly, three cultures were independently prepared from 8 to 12 pups each. Pups were cryo‐anaesthetized, and brains were removed and transferred into ice‐cold dissociation solution (NaS0_4 90 mmol/L; K2SO4 30 mmol/L; MgCl2 5.8 mmol/L; CaCl20.25 mmol/L; HEPES 10 mmol/L; glucose 20 mmol/L; pH 7.4). Following dissection, the frontal cortex was digested in papain solution (20 U/mL; 40 minutes at 37°C), and the product passed through Pasteur pipettes of progressively decreasing diameter for mechanical dissociation. The suspension obtained was centrifuged, and cells were then resuspended and diluted to a density of 2.5 million/mL, before plating onto glass coverslips pre‐coated with collagen/poly l‐lysine (each at 0.1 mg/mL). Culture proceeded in supplemented Neurocell medium (B27 4%; 100 U/mL penicillin‐streptomycin; GlutaMAX 2%; FBS 10%) for 24 hours. Coverslips were then transferred to a six‐well plate containing 2 mL of Neurocell medium/well and transfected with Flag‐DOPr (8 µg/well), using a calcium phosphate transfection protocol previously. ^19 Murine DORs tagged with the Flag epitope at the N terminus were a generous gift from Dr M. von Zastrow (University of California at San Francisco, San Francisco, CA).
Immunolabelling of surface receptors for quantification of trafficking was performed as previously described. ^19 Briefly, primary cultures expressing Flag‐DOPrs were incubated at 37°C with Neurocell medium containing Ca^2+‐dependent mouse anti‐Flag M1 antibody (1:100; Sigma). After 30 minutes incubation with the antibody, vehicle (0.05% DMSO in Neurocell) or agonist (TIPP, deltorphin II; SNC‐80; SB235863; 10 μmol/L) was added to the medium for 60 minutes. At the end of this period, cultured neurons were washed at 37°C once in calcium‐free PBS and then in PBS in order to remove treatment agonist as well as antibody bound to receptors that may have remained at the membrane after agonist exposure. For visualization of internalized receptors, cultures were immediately fixed with 4% PFA, permeabilized with PBS/0.1% Triton (20 minutes at room temperature (RT)), blocked with PBS/BSA 1% (10 minutes at RT) and incubated with secondary antimouse Alexa 488‐conjugated donkey antibody (1:1000; Invitrogen, A21202). Alternatively, cultured neurons were allowed to recover for 60 minutes in the absence of ligand before a second round of calcium‐free PBS wash was completed before fixation, permeabilization and incubation with secondary antibody. The latter procedure allowed to remove antibody bound to Flag‐DOPrs that translocated to the surface during recovery ensuring the exclusive labelling of receptors that were retained intracellularly. ^26 Another set of neurons was similarly treated with agonist or vehicle and then allowed to recover for 60 minutes following which they were fixed and incubated with secondary antibody without permeabilization, so as to exclusively reveal Flag‐DOPrs that reappeared at the surface during recovery from internalization; measures of surface labelling were normalized to intracellular labelling produced during internalization. Recycling was thus established by taking two independent measures: (a) cytoplasmic labelling density lost during recovery from treatment and (b) gain in surface labelling density when neurons were allowed to recover from agonist‐induced internalization. In experiments in which 6634449 was introduced in the medium during recovery, the concentration used was 20 μmol/L.
Cytoplasmic and surface labelling densities were quantified with ImageJ using a previously described method, ^27 with small modifications. ^16 In particular, total cytoplasmic labelling density was obtained by measuring fluorescence intensity within the region confined between the external and nuclear perimeters, and dividing this value by the corresponding area. […]

Molecule	Anti‐allodynic response over 6‐day treatment [1]	Surface labelling after recovery [2]	Intracellular immunoreactivity after 60 min recovery vs immediately after treatment [2]	Effect of ECE2 inhibitor 6634449 on redistribution of internalized receptors during recovery [2]	Analgesic t 1/2 (95% CI), rats pre‐treated with ECE2 inhibitor 6634449 ([1]; 6634449 3 nmol/30 μL (0.1 mmol/L) i.t. 20 min before each daily i.t. agonist injection at ED80, five rats/group)	Tolerance / analgesia with 6634449 pre‐treatment compared with vehicle controls ([1]; 6634449 0.1 mmol/L i.t. 20 min before each agonist injection at ED80, five rats/group)	Day by which analgesic effects were reduced in animals exposed to 6634449 ([1]; 6634449 i.t. 20 min before each daily agonist injection at ED80) [days]	Analgesic t 1/2 (95% CI), rats pre‐treated with vehicle ([1]; vehicle i.t. 20 min before each daily i.t. agonist injection at ED80, five rats/group)
CCC(C)COC(=O)c1[nH]c2c(c1C)CC1C3Cc4ccc(OC)c5c4C1(CCN3C)C2O5.Cl (stereo not drawn) [SB235863, [8R‐(4bS*,8aα,8aβ,12bβ)]7,10‐dimethyl‐1‐methoxy‐11‐(2‐ethylpropyl)oxycarbonyl 5,6,7,8,12,12b‐hexahydro‐(9H)‐4,8‐methanobenzofuro[3,2‐e]pyrrolo[2,3‐g]isoquinoline hydrochloride]	practically abolished	less	not different from the one observed immediately after the end of treatment	without effect	–	–	–	–
C=CCN1C[C@H](C)N([C@H](c2ccc(C(=O)N(CC)CC)cc2)c2cccc(OC)c2)C[C@H]1C [SNC‐80, (+)‐4‐[(αR)‐α‐((2S,5R)‐4‐allyl‐2,5‐dimethyl‐1‐piperazinyl)‐3‐methoxybenzyl]‐N,N‐diethylbenzamide]	gradually decreased	less	not different from the one observed immediately after the end of treatment	without effect	–	–	–	–
deltorphin II	maintained its analgesic response	–	significantly reduced	remain trapped in the cytosol	ill‐defined	significantly shorter	4	no measurable decay t 1/2
